#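 Results reflect a 48-hour exposure of cells in 96-well plates to compound at five concentrations. GI50: concentration for 50% inhibition of growth. The concentration for full growth arrest is given as TGI.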
# Key:
# Test in all cases: growth of human tumour cells (NCI), 48 h
# [1] = test system: 786-0 renal
# [2] = test system: A498 renal
# [3] = test system: A549 NSCLC
# [4] = test system: ACHN renal
# [5] = test system: BT-549 breast
# [6] = test system: CAKI-1 renal
# [7] = test system: CCRF-CEM leukemia
# [8] = test system: COLO 205 colon
# [9] = test system: DU-145 prostate
# [10] = test system: EKVX NSCLC
# [11] = test system: HCC-2998 colon
# [12] = test system: HCT-116 colon
# [13] = test system: HCT-15 colon
# [14] = test system: HL-60(TB) leukemia
# [15] = test system: HOP-62 NSCLC
# [16] = test system: HOP-92 NSCLC
# [17] = test system: HS 578T breast
# [18] = test system: HT29 colon
# [19] = test system: IGROV1 ovarian
# [20] = test system: K-562 leukemia
# [21] = test system: KM12 colon
# [22] = test system: LOX IMVI melanoma
# [23] = test system: M14 melanoma
# [24] = test system: MALME-3M melanoma
# [25] = test system: MCF7 breast
# [26] = test system: MDA-MB-231 breast
# [27] = test system: MDA-MB-435
# [28] = test system: MOLT-4 leukemia
# [29] = test system: NCI-H226 lung
# [30] = test system: NCI-H23 lung
# [31] = test system: NCI-H460 lung
# [32] = test system: NCI-H522 lung
# [33] = test system: NCI/ADR-RES ovarian
# [34] = test system: OVCAR-3 ovarian
# [35] = test system: OVCAR-4 ovarian
# [36] = test system: OVCAR-5 ovarian
# [37] = test system: OVCAR-8 ovarian
# [38] = test system: PC-3 prostate
# [39] = test system: RPMI-8226 leukemia
# [40] = test system: RXF 393 renal
# [41] = test system: SF-268 CNS
# [42] = test system: SF-295 CNS
# [43] = test system: SF-539 CNS
# [44] = test system: SK-MEL-2 melanoma
# [45] = test system: SK-MEL-28 melanoma
# [46] = test system: SK-MEL-5 melanoma
# [47] = test system: SK-OV-3 ovarian
# [48] = test system: SN12C renal
# [49] = test system: SNB-19 CNS
# [50] = test system: SNB-75 CNS
# [51] = test system: SR leukemia
# [52] = test system: SW-620 colon
# [53] = test system: T-47D breast
# [54] = test system: TK-10 renal
# [55] = test system: U251 CNS
# [56] = test system: UACC-257 melanoma
# [57] = test system: UACC-62 melanoma
# [58] = test system: UO-31 renal
compound,measurement,setting,value
Cc1ccc(CNc2c3ccccc3nc3ccccc23)cc1,GI50,[1],1.95 µM
same,TGI,[1],4.26 µM
same,GI50,[2],1.21 µM
same,TGI,[2],2.92 µM
same,GI50,[3],1.94 µM
same,TGI,[3],5.05 µM
same,GI50,[4],1.63 µM
same,TGI,[4],3.95 µM
same,GI50,[5],2.43 µM
same,TGI,[5],6.34 µM
same,GI50,[6],1.53 µM
same,TGI,[6],4.57 µM
same,GI50,[7],2.48 µM
same,TGI,[7],12.6 µM
same,GI50,[8],1.57 µM
same,TGI,[8],3.59 µM
same,GI50,[9],3.02 µM
same,TGI,[9],11.4 µM
same,GI50,[10],2.06 µM
same,TGI,[10],8.04 µM
same,GI50,[11],1.72 µM
same,TGI,[11],3.74 µM
same,GI50,[12],0.88 µM
same,TGI,[12],6.6 µM
same,GI50,[13],1.8 µM
same,TGI,[13],4.42 µM
same,GI50,[14],2.2 µM
same,TGI,[14],5.07 µM
same,GI50,[15],3.58 µM
same,TGI,[15],16.8 µM
same,GI50,[16],1.36 µM
same,TGI,[16],5.05 µM
same,GI50,[17],2.46 µM
same,TGI,[17],6.6 µM
same,GI50,[18],2.08 µM
same,TGI,[18],10.7 µM
same,GI50,[19],1.88 µM
same,TGI,[19],5.56 µM
same,GI50,[20],1.97 µM
same,TGI,[20],13.1 µM
same,GI50,[21],3.4 µM
same,TGI,[21],12.9 µM
same,GI50,[22],1.48 µM
same,TGI,[22],2.84 µM
same,GI50,[23],1.53 µM
same,TGI,[23],3.24 µM
same,GI50,[24],1.66 µM
same,TGI,[24],3.18 µM
same,GI50,[25],1.99 µM
same,TGI,[25],5.03 µM
same,GI50,[26],1.8 µM
same,TGI,[26],4.52 µM
same,GI50,[27],1.63 µM
same,TGI,[27],3.1 µM
same,GI50,[28],2.85 µM
same,TGI,[28],10.5 µM
same,GI50,[29],1.87 µM
same,TGI,[29],5.12 µM
same,GI50,[30],1.59 µM
same,TGI,[30],4.04 µM
same,GI50,[31],2.02 µM
same,TGI,[31],5.26 µM
same,GI50,[32],1.67 µM
same,TGI,[32],4.75 µM
same,GI50,[33],1.74 µM
same,TGI,[33],5.35 µM
same,GI50,[34],2.42 µM
same,TGI,[34],6.22 µM
same,GI50,[35],1.54 µM
same,TGI,[35],5.36 µM
same,GI50,[36],1.99 µM
same,TGI,[36],8.08 µM
same,GI50,[37],2.52 µM
same,TGI,[37],10.5 µM
same,GI50,[38],1.87 µM
same,TGI,[38],7.11 µM
same,GI50,[39],1.48 µM
same,TGI,[39],3.86 µM
same,GI50,[40],1.68 µM
same,TGI,[40],3.41 µM
same,GI50,[41],2.98 µM
same,TGI,[41],11.3 µM
same,GI50,[42],2.53 µM
same,TGI,[42],8.87 µM
same,GI50,[43],1.57 µM
same,TGI,[43],3.01 µM
same,GI50,[44],2.06 µM
same,TGI,[44],4.47 µM
same,GI50,[45],1.84 µM
same,TGI,[45],4.16 µM
same,GI50,[46],1.66 µM
same,TGI,[46],3.06 µM
same,GI50,[47],2.59 µM
same,TGI,[47],10.8 µM
same,GI50,[48],2.6 µM
same,TGI,[48],11.1 µM
same,GI50,[49],3.33 µM
same,TGI,[49],14.2 µM
same,GI50,[50],0.402 µM
same,TGI,[50],6.8 µM
same,GI50,[51],1.56 µM
same,TGI,[51],6.22 µM
same,GI50,[52],1.62 µM
same,TGI,[52],5.32 µM
same,GI50,[53],1.87 µM
same,TGI,[53],4.83 µM
same,GI50,[54],2.97 µM
same,TGI,[54],12.6 µM
same,GI50,[55],2.65 µM
same,TGI,[55],10.4 µM
same,GI50,[56],2.17 µM
same,TGI,[56],5.06 µM
same,GI50,[57],1.75 µM
same,TGI,[57],4.1 µM
same,GI50,[58],1.12 µM
same,TGI,[58],3.17 µM

# Source: PubChem BioAssay (NCI)
